Experimental data reported in patent publication US4822791A, “Pharmaceutical compositions of-2,2-1,1-[bis-2,2'-(3,1-benzoxazin-4-one)9 ethylenes” (priority 1984, dated 1989).
Values joined by “and” are separate entries in the source; they are usually repeats but may differ in a detail not shown here. Equal entries are not always repeated. Where two headings read alike, the source gives them in different places.

Assays:
[1] = Acute toxicity LD50 in ICR mice (Test Example 11); details: mouse, in vivo, one week, Provit method
Experimental: As test animals, ICR-strain mice (male) were used. According to the conventional procedure, suspension or solution of test sample was administered to the animals. From the number of the died animals until one week after the administration, LD50 values were obtained by Provit method.

[2] = test system: mast cell in abdominal cavity; experiment: Release of histamine by dextran (T-500), mast cell in abdominal cavity (Test Example 12); type: cell-based, rat
Experimental: (§1) Collection of mast cells in abdominal cavity and thoracic cavity and sensitizing of cells were conducted in similar manners to those in Test Example 10, respectively.
(§2) The sample solution was treated with 105 microgramms/ml phosphatidylserin PBS solution (0.5 ml) and incubated at 37° C. for 30 minutes, followed by addition of 25 mg/ml dextran (T-500) PBS solution (0.5 ml) and further incubation for 15 minutes.
(§3) This is conducted in a manner similar to that in Test Example 10.

[3] = test system: passive cutaneous anaphylaxis (PCA); experiment: Anti-passive cutaneous anaphylaxis (PCA) activity in rats (Test Example 2); type: in vivo, Wistar strain rats; details: Rattus norvegicus, N 10; for inhibition in vivo at 10 mg/kg: 10 mg/kg PO; for inhibition in vivo at 50 mg/kg: 50 mg/kg PO; for inhibition in vivo at 100 mg/kg: 100 mg/kg PO; for inhibition in vivo at 200 mg/kg: 200 mg/kg PO
Experimental: (§4) Wistar strain rats were sensitized with ovalbumin using aluminium hydroxide gel and Bordetella Pertussis vaccine as adjuvants. Dilutions of antiserum (16-fold and 32-fold) obtained by collecting blood samples 14 days later were administered subcutaneously in the dorsal skin of the rats of the same strain at the rate of 0.1 ml per spot, and the rats were grown for 48 hours. One hour after peroral administration of the sample solution, a mixture of antigen ovalbumin and Evans-blue dye was administered to the tail venous of the animal according to the ordinary procedure. Thirty minutes later, the animals were sacrificed by exsanguination, and the areas of blue spots (long diameter×short diameter) eliciting on the portion of the antiserum injection at the dorsal skin were measured to obtain the rate of inhibition based on the average value shown by the control animals.

[4] = test system: passive cutaneous anaphylaxis (PCA); experiment: Anti-passive cutaneous anaphylaxis activity (PCA) in rats (Test Example 9); type: in vivo; details: Rattus norvegicus, po, 10 animals
Experimental: as §4
This test was conducted in a manner similar to that in Test Example 2, except that the dilutions of antiserum were 12- and 24-folds.

[5] = test system: mast cell in abdominal cavity; experiment: Release of histamine by antigen DNP-Ascaris, mast cell in abdominal cavity (Test Example 12); type: cell-based, rat; details: 10^-3 M; stronger than DSCG
Experimental: as §1
(1) Preparation of DNP-Ascaris antiserum was conducted in manner similar to that in Test Example 6.
This is conducted in amanner similar to that in Test Example 10.
as §3

[6] = test system: Mast cell in thoracic cavity; experiment: Release of histamine by dextran (T-500), mast cell in thoracic cavity (Test Example 12); type: cell-based, rat
Experimental: as §1, §2, §3

[7] = Acute toxicity LD50 in mice (Test Example 8); details: mouse, in vivo, one week, Probit method
Experimental: ddy-Strain mice (male) and Wistar strain rats were used to obtain LD50 values.
According to the ordinary procedure, suspension or solution of test sample was administered to the animals. From the number of the died animals until one week after the administration, LD50 values were obtained by Probit method.

[8] = test system: Mast cell in thoracic cavity; experiment: Histamine release by antigen DNP-Ascaris, mast cell in thoracic cavity (Test Example 10); type: cell-based; details: Rattus norvegicus, 20 min, 10^-3 M, read-out: released amount of histamin, Mast cell in thoracic cavity (control shown as 100)
Experimental: (§5) Examination was made cn the activity of inhibition of histamine release from mast cell by antigen-antibody reaction.
(§6) Preparation of DNP-Ascaris antiserum was conducted in a manner similar to that in Test Example 6.
(§7) Heparin-containing PBS was injected into the abdominal cavity of rat which was sacrificed by bleeding, after which the abdomen was well massaged, and then peritoneal exudate was sampled. The same liquid was also injected into the thoracic cavity, and after shaking the breast for several minutes, the thoracic cavity liquid was sampled, which was purified by washing several times by centrifugation. The number of the mast cells contained in this liquid was measured and adjusted to a designated concentration. (Mast cells, 8.0×10^4 cells/ml).
To the cell suspension (4 ml, 9×10^5 cells/ml), anti-DNP-Ascaris rat serum (PCA titer, 32) (4 ml) was added, and the mixture was incubated in the presence of heparin at 37° C. for 2.5 hours. To the solution, 70 microgramms/ml phosphatidylserin PBS solution (0.5 ml) was added and the mixture was incubated at 37° C. for 12 minutes, after which 140 microgramms/ml antigen DNP-Ascaris PBS solution (0.5 ml) was added and the mixture was incubated further for 20 minutes. […]

[9] = test system: mast cell in abdominal cavity; experiment: Histamine release by antigen DNP-Ascaris, mast cell in abdominal cavity (Test Example 10); type: cell-based, rat; details: 10^-3 M
Experimental: as §5, §6, §7
To the cell suspension (4 ml, 9×10^5 cells/ml), anti-DNP-Ascaris rat serum (PCA titer, 32) (4 ml) was added, and the mixture was incubated in the presence of heparin at 37° C. for 2.5 hours. To the solution, 70 microgramms/ml phosphatidylserin PBS solution (0.5 ml) was added and the mixture was incubated at 37° C. for 12 minutes, after which 140 microgramms/ml antigen DNP-Ascaris PBS solution (0.5 ml) was added and the mixture was incubated further for 20 minutes.
After completion of the reaction, the reaction liquid was centrifuged (500 G, 10 min.) to obtain supernatant solution, and histamin in the supernatant solution was subjected to fluorometry by orthophthalal aldehyde method. The released amount of histamin in the control was shown as 100.

[10] = test system: mast cell in abdominal cavity; experiment: Inhibition of histamine release from mast cell in abdominal cavity in rat (Test Example 6); type: cell-based; details: for activity at 1000 µM / activity at 100 µM / activity at 10 µM / activity at 1 µM: Rattus norvegicus, Mast cell, 20 min, DNP-Ascaris 20 microgramms/ml, read-out: Amount of histamine released from peritoneal mast cell (Control = 100); for activity at 1000 µM: 10^-3 M; for activity at 100 µM: 10^-4 M; for activity at 10 µM: 10^-5 M; for activity at 1 µM: 10^-6 M
Experimental: Examination was made on the activity of inhibition of histamine release from mast cell by antigen-antibody reaction.
Swine ascaris extract solution was dinitrophenylated according to Aisen's method, dialysed, and lyophilized. The product was administered as antigen together with Bordetella Pertussis vaccine subcutaneously into the foot pad of rat. Eight days later, blood was taken to obtain antiserum. The PCA titer for this antiserum in rat was 32 to 64.
Heparin-containing PBS was injected intraperitoneally to rat which was sacrificed by exsanguination, after which the abdomen was well massaged to collect the injected PBS, which was purified by washing several times by centrifugation. The number of the mast cells contained in the solution was determined and adjusted to the designed concentration. As to method of sensitizing the cell, the above cell suspension (6 ml, 2×10^6 cells/ml) was treated with anti-DNP-Ascaris rat serum (PCA titer 32) (6 ml) and the mixture was incubated in the presence of hepain at 37° C. for 2 hours.
To the sensitized mast cell suspension the solution of the drug to be tested was added, and the mixture was preliminarily incubated at 37° C. for 12 minutes. After addition of the solution of antigen DNP-Ascaris (final concentration, 20 microgramms/ml), the mixture was further incubated for 20 minutes. After completion of the reaction, the solution was centrifuged (500 G, 10 min.) under a low temperature to obtain a supernatant solution. Histamine contained in the supernatant solution was subjected to fluorometry by crthophthalaldehyde method.

hyaluronidase = details: known from the literature; cited from earlier work
[11] = test system: anaphylaxis reaction to inhalated antigen; experiment: Antigen inhalation test on passive sensitized guinea pig (experimental asthma model); type: in vivo; details: 200 mg/kg po
Experimental: The test compound and Tranilast were respectively suspended at the time of use in 5% gum arabic solution containing 0.1% Tween 80 at the rate of 40 mg/ml, and were perorally administered at the rate of 0.5 ml per 100 g body weight of the animal.
DSCG was dissolved at the time of use in physiological saline solultion for injection at the rate of 5.0 mg/ml, and was intravenously injected at the rate of 0.1 ml per 100 g body weight of the animal.
Anti-ovalbumin rabbit serum diluted with physiological saline solution for injection so as tc contain anti-ovalbumin rabbit antibody at the rate of 0.187 mg N/ml was intravenously administered to guinea pig at the rate of 0.1 ml per 100 g of body weight and it was passively sensitized.
Twenty-four hours later, the suspension of the compound prepared in (1) above was perorally or intravenously administered to the animal. The animal was put in the inhalation chamber one hour after the administration in case of the peroral administration and five minutes after the administration in case of the intravenous administration, and 2% physiological saline solution of antigen ovalbumin was inhaled by spraying. Over 10 minutes' period from the time immediately after the forced inhalation, the time until its fall attributed to anaphylaxis reaction was recorded, and the numbers of alive and dead animals after lapse of 10 minutes were also counted.

SRS-A = experiment: Anti-SRS-A activity, contraction of guinea pig ileum by crude SRS-A solution; design: key to Anti-SRS-A activity (rate of inhibition against the contraction amount): % inhibition of SRS-A-induced ileum contraction
Experimental: A piece of lungs of guinea pig sensitized with ovalbumin was incubated with antigen ovalbumin at 37° C. for 20 minutes to obtain a supernatant solution, which was used as a crude SRS-A solution.
A piece of ileum of normal guinea pig was suspended in Magnus tube filled with Tyrode's solution and incubated with the solution of drug to be examined for a certain duration, and the contraction of the piece of ileum induced by adding the above crude SRS-A solution was determined on the basis of the contraction rate attributed to hystamine dihydrochloride 10^-6 M. The rate of inhibition against the contraction amount was taken as anti-SRS-A activity.

[12] = intravenous, read-out: LD50 Value (mg/kg of body weight) Intravenous administration
[13] = read-out: Average Inhibition Rate (%) Antiserum Dilution: × 16
[14] = read-out: Average Inhibition Rate (%) Antiserum Dilution: × 32
[15] = read-out: Inhibition, Anti-serum Dilution: × 12
[16] = read-out: Inhibition, Anti-serum Dilution: × 24
[17] = po, peroral, read-out: LD50 Value (mg/kg of body weight) Peroral administration

Row | Molecule | LD50 at 168 h [1, 12] [mg/kg] | inhibition in vivo at 10 mg/kg [3, 13] [%] | inhibition in vivo at 10 mg/kg [3, 14] [%] | inhibition in vivo at 50 mg/kg [3, 13] [%] | inhibition in vivo at 50 mg/kg [3, 14] [%] | inhibition in vivo at 100 mg/kg [3, 13] [%] | inhibition in vivo at 100 mg/kg [3, 14] [%] | inhibition in vivo at 10 mg/kg [4, 15] [%] | inhibition in vivo at 10 mg/kg [4, 16] [%] | inhibition in vivo at 50 mg/kg [4, 15] [%] | inhibition in vivo at 50 mg/kg [4, 16] [%] | LD50 at 168 h [1, 17] [mg/kg] | activity at 1000 µM [10] [%] | activity at 100 µM [10] [%] | activity at 10 µM [10] [%] | activity at 1 µM [10] [%] | effect on hyaluronidase activity (in words) (hyaluronidase) | further results
1 | CCOC(=O)c1ccccc1NC(=O)C(=Cc1ccccc1)C(=O)Nc1ccccc1C(=O)OCC [Compound 14, Diethyl 2,2'-[(1,3-dioxo-2-phenylmethylene-1,3-propanediyl)diimino]bisbenzoate] | 347 | 38.6 | 38.7 | 41.9 | 72.2 | 59.3 | 85.1 | 29.8 | 31.3 | 36.7 | 40.5 |  |  |  |  |  |  | histamine release inhibiting activity, dextran (T-500) (in words) ([2]; 10^-4 and 10^-3 M, almost the same as DSCG): histamine release inhibiting activities; activity at 1000 µM ([2]; Rattus norvegicus, Mast cell, 0.25 h, 10^-3 M, read-out: Effect on release of histamine by dextran (T-500), Mast cell in abdominal cavity (control 100)): 40.2%; activity at 100 µM ([2]; Rattus norvegicus, Mast cell, 0.25 h, 10^-4 M, read-out: Effect on release of histamine by dextran (T-500), Mast cell in abdominal cavity (control 100)): 94.5%; histamine release inhibiting activity, antigen DNP-Ascaris (in words) [5]: histamine release inhibiting activity; Effect on release of histamine by dextran (T-500), Mast cell in thoracic cavity (control 100) ([6]; 10^-4, 15 min): 55.6; activity at 1000 µM ([6]; Rattus norvegicus, Mast cell, 0.25 h, 10^-3 M, read-out: Effect on release of histamine by dextran (T-500), Mast cell in thoracic cavity (control 100)): 42.2%; LD50 at 168 h ([7]; iv, read-out: LD50 value (mg/kg body weight) Mouse i.v.): 299 mg/kg; LD50 at 168 h ([7]; po, read-out: LD50 value (mg/kg body weight) Mouse p.o.): > 10000 mg/kg
2 | COC(=O)c1ccccc1NC(=O)C(=Cc1ccccc1)C(=O)Nc1ccccc1C(=O)OC [Compound 51] | 238 |  |  |  |  |  |  | 28.1 | 30.3 | 34.2 | 37.5 | ≥ 8000 |  |  |  |  |  | activity at 1000 µM [8]: 75.1%; inhibition of release of histamine from mast cells in abdominal and thoracic cavity (in words) [9]: action of inhibiting release of histamine; activity at 1000 µM ([9]; Rattus norvegicus, Mast cell, 20 min, read-out: released amount of histamin, Mast cell in abdominal cavity (control shown as 100)): 50.4%
3 | O=c1oc(C(=Cc2ccccc2)c2nc3ccccc3c(=O)o2)nc2ccccc12 [Compound 52, 2,2'-phenylethenilidenebis(3,1-benzoxazine-4-one)] | 319 | 20.6 | 29.4 | 37.9 | 38.3 | 45 | 47.1 |  |  |  |  | > 10000 | 21 | 60 | 68 | 70 |  | inhibition of release of histamine from the mast cell (in words) ([10]; even at the low concentration of 10^-6 M): inhibiting release of histamine
4 | COc1ccc(/C=C/C(=O)Nc2ccccc2C(=O)O)cc1OC [Tranilast, reference compound] |  |  |  |  |  |  |  |  |  |  |  |  | 29 | 67 | 95 | 95 | inhibit hyaluronidase activity | Extended rate (%) [11]: -3.0%; preventive effect on anaphylaxis reaction (in words) [11]: no activity; Average time for falling Mean ± S.E. ([11]; N 5): 150.8 ± 14.8 s; Required time (sec.) for falling and Number of death (#), single animals ([11]; N 5, observed 10 minutes, # shows death): 116 s and 126 s and 141 s and 181 s and 190 s; inhibition in vivo at 200 mg/kg [3, 13]: 1.8%; inhibition in vivo at 200 mg/kg [3, 14]: 15.8%; Anti-SRS-A activity (rate of inhibition against the contraction amount) (SRS-A; 10^-3 M): 0; Anti-SRS-A activity (rate of inhibition against the contraction amount) (SRS-A; 10^-4 M): 0; Anti-SRS-A activity (rate of inhibition against the contraction amount) (SRS-A; 10^-5 M): 0; Anti-SRS-A activity (rate of inhibition against the contraction amount) (SRS-A; 10^-6 M): 0; anti-SRS-A activity (in words) (SRS-A; compound 11 at a concentration of 10^-3 M): no activity; inhibition in vivo at 200 mg/kg [4, 15]: 2.1%; inhibition in vivo at 200 mg/kg [4, 16]: 10.7%
5 | polymixin B |  |  |  |  |  |  |  |  |  |  |  |  |  |  |  |  | activate hyaluronidase | 
